Measurements taken from patent US20150225303A1, “IRON-ESSENTIAL FOR FLORA AND FAUNA” (priority 2012, published 2015).

Key:
[1] = tested on: maize crop; assay: Field experiment in maize crop, foliar application; assay type: in vivo; details: for Stem girth R1 / Cobs yield R1 / No. of cobs R1 / Seed yield R1: replicate R1; for Cobs yield MEAN / No. of cobs MEAN / Seed yield MEAN / Stem girth MEAN: mean of R1-R3; for Cobs yield R3 / No. of cobs R3 / Seed yield R3 / Stem girth R3: replicate R3
Method: Field experiments in maize crop were conducted using the composition of the present invention at Maize Research Centre, Hyderabad during kharif 2009. […] GRIP (Fe HEDP)-15% […]+27% P2O5-1 g/l of water • […] of water • […] of water • T 5: Fe EDTA-12%-1 g/l of water • T 6: […] Control (Only recommended Fertilizer dose) For all the six treatments, the composition of the present invention was used along with the recommended fertilizer dose (180-60-60 kg N-P2O5-K2O/ha). The composition of the present invention (Fe-HEDP) was applied at three stages 20, 40 and 60 days after sowing. The crops were harvested in the month of November i.e. four months after sowing.

[2] = prior art statement; cited from earlier work
[3] = treatment level 2 (2 g/l of water; GRIP T2 printed as 1 g/l)

Q: Which “Stem girth R1” value ([1]; 1 g/l of water, applied 20, 40 and 60 days after sowing) does the source give for `O=C([O-])CN(CCN(CC(=O)[O-])CC(=O)[O-])CC(=O)[O-].[Fe+3]` [Fe EDTA, Fe-Ethylene diamine tetra acetic acid] here?
A: 6.6 cm

Q: What about the “Cobs yield MEAN” value ([1]; 1 g/l of water) of the same compound?
A: 7516.67 kg/ha

Q: What about the “No. of cobs MEAN” value ([1]; 1 g/l of water) of the same compound?
A: 40.17 ′000 ha

Q: What about the “Seed yield MEAN” value ([1]; 1 g/l of water) of the same compound?
A: 5777.67 kg/ha

Q: And the “Stem girth MEAN” value ([1]; 1 g/l of water)?
A: 6.53 cm

Q: What about the “Cobs yield R1” value ([1]; 1 g/l of water) of the same compound?
A: 6205 kg/ha

Q: What about the “No. of cobs R1” value ([1]; 1 g/l of water) of the same compound?
A: 38.8 ′000 ha

Q: What about the “Seed yield R1” value ([1]; 1 g/l of water) of the same compound?
A: 5022.0 kg/ha

Q: What about the “Cobs yield R3” value ([1]; 1 g/l of water) of the same compound?
A: 8490 kg/ha

Q: What about the “No. of cobs R3” value ([1]; 1 g/l of water) of the same compound?
A: 41.2 ′000 ha

Q: And the “Seed yield R3” value ([1]; 1 g/l of water)?
A: 6448.0 kg/ha

Q: And the “Stem girth R3” value ([1]; 1 g/l of water)?
A: 6.6 cm

Q: And the “Cobs yield MEAN” value [1, 3]?
A: 7875.00 kg/ha

Q: What about the “No. of cobs MEAN” value [1, 3] of the same compound?
A: 37.8 ′000 ha

Q: And the “Seed yield MEAN” value [1, 3]?
A: 5888.00 kg/ha

Q: And the “Stem girth MEAN” value [1, 3]?
A: 6.43 cm

Q: What about the “Cobs yield R1” value [1, 3] of the same compound?
A: 6935 kg/ha

Q: And the “No. of cobs R1” value [1, 3]?
A: 35.6 ′000 ha

Q: And the “Seed yield R1” value [1, 3]?
A: 4355.0 kg/ha

Q: And the “Stem girth R1” value [1, 3]?
A: 6.5 cm

Q: And the “Cobs yield R3” value [1, 3]?
A: 8200 kg/ha

Q: And the “No. of cobs R3” value [1, 3]?
A: 41.0 ′000 ha

Q: And the “Seed yield R3” value [1, 3]?
A: 7633.0 kg/ha

Q: And the “Stem girth R3” value [1, 3]?
A: 6.1 cm

Q: Which “pH level up to which the chelate is stable” value [2] does the source give for `O=C([O-])CN(CCN(CC(=O)[O-])CC(=O)[O-])CCN(CC(=O)[O-])CC(=O)[O-].[Fe+3]` [Fe-DTPA, Fe-Diethylene triamine penta acetic acid] here?
A: up to 7.0

Q: For `O=C([O-])C(NCCNC(C(=O)[O-])c1ccccc1[O-])c1ccccc1[O-].[Fe+3]` (centres unmarked) [Fe-EDDHA, Fe-ethylene diamine-N,N′-bis (2-hydroxyphenylacetic acid)], which “pH level up to which the chelate is stable” value [2] is on record?
A: up to 11.0
